Results on two molecules are retold here after US12150981B2, “Chimeric antigen receptor-expressing T cells as anti-cancer therapeutics” (Purdue Research Foundation, priority 2012, dated 2024).

Experiment [1] has as its target T1, folate receptor (FR) on KB cells (Homo sapiens, UniProt P15328).
T1 construct: endogenous in cells; host or cells: KB cells
In words: Binding of FITC-Folate conjugates to FR positive KB cancer cells, fluorescence/confocal microscopy. How it is done: (§1) The ability of the FITC-Folate and FITC-(PEG)12-Folate conjugates to bind folate receptor (FR) positive cancer cells was next investigated. FR positive cells lines L1210A (Mouse lymphocytic leukemia) and KB (Mouth epidermal carcinoma), which are FR positive cell lines, were used to test the binding affinity of the FITC-Folate conjugates. Briefly, 3-4×10^4 cancer cells were prepared to perform binding affinity assays with FITC-Folate and FITC-(PEG)12-Folate conjugates. With two different concentrations (e.g. 20 nM, 70 nM), the two FITC-Folate conjugates were incubated with cancer cells at room temperature for 1 hour. Since both FITC-Folate conjugates have fluorescence, the binding ability of FITC-Folate conjugates to cancer cells can be detected by florescence microscopy. After two washes with 1× phosphate buffered saline (PBS) to remove all unbound compound, the cancer cells were observed by confocal microscope. In order to specify whether FITC-Folate conjugates bind to cancer cells via FR on the surface of cancer cells, Folate Acid was also incubated with cancer cells as a competition compound. […] As shown in competition panel, addition of 50× excess folate acid blocked FITC-Folate binding with these cancer cells, which indicates the specific binding is between folate acid and FR on cell surface.

Experiment [2] concerns anti-FITC scFv in CAR4-1BBZ on transduced T cells. Put plainly: Binding of FITC-Folate conjugates to CAR4-1BBZ transduced T cells, confocal microscopy. The arrangement: species or system mouse. The procedure:
To examine the ability of the transduced T cells containing CAR4-1BBZ to bind the FITC-Folate conjugates, binding assays with the FITC-Folate conjugate and the FITC-(PEG)12-Folate conjugate were performed. Since the excitation wavelength of FITC in the FITC-Folate conjugates overlapped with copGFP in CAR4-1BB transduced T cells, it was difficult to distinguish between FITC binding and copGFP expression. Therefore, an anti-Folate Acid (FA) monoclonal antibody and a fluorephore (excitation 640 nm)-labeled anti-mouse IgG antibody were utilized.
First, the transduced T cells were incubated with FITC-Folate or FITC-(PEG)12-Folate conjugates at room temperature for 1 hour. After washing with 1×PBS, transduced T cells were incubated with anti-FA monoclonal antibody (1:15 dilution) for 1 hour. After another washing with 1×PBS, transduced T cells further were incubated with fluorophore (excitation 640 nm) labeled anti-mouse IgG antibody (1:50 dilution). Finally, unbound antibodies were washed away and a confocal microscope was used to confirm the FITC-Folate and FITC-(PEG)12-Folate conjugates binding ability. All data was analyzed by Olympus Fluoview software. […] Simultaneously, binding of FITC-Folate and FITC-(PEG)12-Folate conjugates (arrows) were also detected on the CAR4-1BBZ transduced T cells.

The subject of experiment [3] is FR+ L1210A cells. In words: 51Chromium release cytotoxicity assay of anti-FITC CAR-expressing T cells against L1210A cells. To be noted: 70 nM conjugate, effector:target 20:1, 4-10 hours. In kind it is cell-based, mouse. How it is done: In order to explore whether CAR-expressing T cells can kill cancer cells, ^51Chromium release assays were conducted. In this assay, cancer cells are labeled with ^51Cr. When cancer cells are lysed, ^51Cr would be released from cancer cells to supernatant. By measuring ^51Cr in supernatant, the number of cancer cells killed can be determined.
First, target cancer cells L1210A were incubated in 50 μL growth medium containing 50 μCi ^51Chromium to get labeled. After washing with PBS×3, L1210A cells were resuspended and incubated at 37° C. for 1 hour in the growth medium containing 70 nM FITC-Folate conjugate or FITC-(PEG)12-Folate conjugate. After washing away excess FITC conjugates, 5×10^3 target cancer cells were added in each well of 96-well plates. […] After incubation for 4-10 hours, 20 μL aliquots of cell-free supernatant were harvested and ^51Cr in the supernatants was measured with a scintillation counter or a γ-counter.
Percent specific cytolysis was calculated using following formula: % cytolysis=(Experimental ^51Cr release−control ^51Cr release)/(Maximum ^51Cr release−control ^51Cr release)×100
Control wells contained only target cancer cells, effector T cells were never added in these wells. Maximum ^51Cr release was determined by measuring ^51Cr release from labeled target cells treated with 2.5% SDS to lyse all cells.

For experiment [4], the system named is FR+ KB cells. In words: 51Chromium release cytotoxicity assay of anti-FITC CAR-expressing T cells against KB cells. Type of experiment: cell-based, human. To be noted: 70 nM conjugate, effector:target 20:1, 4-10 hours.
Experiment [5] has as its system folate receptor (FR) on L1210A cells. Put plainly: Binding of FITC-Folate conjugates to FR positive L1210A cancer cells, fluorescence/confocal microscopy. The arrangement: species or system mouse. How it is done: as §1
Experiment [6] relates to PSMA-positive human prostate cancer cells. To be noted: DUPA-(99m)Tc, ref [8]; cited from earlier work.
Where [7] appears, read: 20 nM, 70 nM, room temperature 1 hour.

pKd: −log10 of the molar value.

A word on the pKd: it is −log10 of the Kd, conventionally taken in molar units.

T1 sequence (P15328 25-234): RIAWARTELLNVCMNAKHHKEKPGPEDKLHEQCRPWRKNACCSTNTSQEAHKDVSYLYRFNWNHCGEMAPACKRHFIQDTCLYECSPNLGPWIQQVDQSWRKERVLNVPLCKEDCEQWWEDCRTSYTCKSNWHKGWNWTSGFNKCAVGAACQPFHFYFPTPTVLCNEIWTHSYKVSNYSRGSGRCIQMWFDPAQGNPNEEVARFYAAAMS

Regarding `Nc1nc2ncc(CNc3ccc(C(=O)N[C@@H](CCC(=O)NCCNC(=S)Nc4ccc(-c5c6ccc(=O)cc-6oc6cc(O)ccc56)c(C(=O)O)c4)C(=O)O)cc3)nc2c(=O)[nH]1` (single isomer, unassigned) [FITC-Folate], the “binding to KB cells via FR” value in experiment [1] (setting [7]) was “can bind”. Also, in experiment [1] (50× excess folate acid), the “binding to KB cells in the presence of competitor” value is on record as “blocked”. Further, in experiment [1] (FIG. 3A, 3C), the “cellular localization in KB cells (internalization)” value is recorded as “internalized into KB cell cytoplasm”. For the same molecule, in experiment [2] (non-transduced T cells, same protocol), the “binding to non-transduced T cells” value was “not to non-transduced T cells”. Besides, the “binding to anti-FITC in CAR4-1BBZ transduced T cells” value in experiment [2] (room temperature 1 hour, detected with anti-FA antibody and labeled anti-mouse IgG) was “successfully bound”. Moreover, the entries for the “cancer cell cytolysis by CAR-expressing T cells in the presence of conjugate” value in experiment [3] and in experiment [4] were around 29% and around 18%, respectively. For the same molecule, the “binding to L1210A cells via FR” value in experiment [5] (setting [7]) was “can bind”. For the same molecule, in experiment [5] (50× excess folate acid), the “binding to L1210A cells in the presence of competitor” value is “blocked”.

With `O=C(O)CCC(NC(=O)NC(CCC(=O)O)C(=O)O)C(=O)O` (stereo not shown) [DUPA, 2-[3-(1,3-dicarboxypropyl)ureido] pentanedioic acid], the pKd in experiment [6] is 7.85.
